The values that follow are results of earlier work, collected in US20240325431A1, “COMPOSITION FOR PURIFICATION OF BIOFLUIDS” (BEACON MEDCARE (HK) LIMITED, priority 2018, published 2024).

For this data set, the system named is plasma protein.

`CN1C(C(=O)Nc2ccccn2)=C(O)c2sccc2S1(=O)=O` [tenoxicam]: the “binding rate to plasma protein” value is 99%.
For `C[C@H]1O[C@@H](O[C@H]2[C@@H](O)C[C@H](O[C@H]3[C@@H](O)C[C@H](O[C@H]4CC[C@@]5(C)[C@H](CC[C@@H]6[C@@H]5CC[C@]5(C)[C@@H](C7=CC(=O)OC7)CC[C@]65O)C4)O[C@@H]3C)O[C@@H]2C)C[C@H](O)[C@@H]1O` [digitoxin], the “binding rate to plasma protein” value is on record as 91%.
